Patent US20120053076A1, “METHODS FOR IDENTIFICATION” (Cambridge Enterprise Limited, priority 2009, published 2012)
Read-outs that look alike come from different tables or passages of the source. No end group written: not given here.

Tests used:
[1] = biological target: T1, sstr2 (Homo sapiens, UniProt P30874); assay: Equilibrium binding of [3H]-BN83250 to THP-1 cells
T1 construct: with 1×10^6 THP-1 cells in Gey's Balanced Salt Solution; endogenous in cells; host or cells: THP-1 cells (whole cells, 4° C.)
Experimental: Methods: [^3H]-BN83250 was synthesesized from (S,E)-3-(2′,2′-dimethyldodec-4′-enoylamino)-caprolactam by catalytic hydrogenation using tritium gas over a palladium catalyst (CRB Ltd, Cleveland, UK), yielding the tritiated product at a concentration of […] in ethanol with a specific activity of 220 Ci/mmol. The (S,E)-3-(2′,2′-dimethyldodec-4′-enoylamino)-caprolactam was prepared as follows: (S,S)-3-amino-caprolactam hydro-pyrrolidine-5-carboxylate (10 mmol) and Na2CO3 (30 mmol) in water (30 ml) were added to a solution of 2,2-dimethyl-dodec-4-enoyl chloride (10 mmol) in dichloromethane (30 ml) at ambient temperature and the reaction was stirred for 12 hours. The organic layer was then separated and the aqueous phase was extracted with additional dichloromethane (2×25 ml). The combined organic layers were dried over Na2CO3 and reduced in vacuo. The residue was purified by silica column chromatography (1:1 EtOAc:hexanes to EtOAc) to give […]-3-(2′,2′-dimethyl-dodec-4′-enoyl)amino-caprolactam as a colourless oil (2.12 g, 63%). The radiolabelled compound was stored in the dark at 4° C. until required. Prior to use the specific activity was adjusted by addition of unlabelled BN83250.
For the analysis of binding, individual reactions were set up (in triplicate for each condition), with 1×10^6 THP-1 cells in Gey's Balanced Salt Solution, 10 nM [^3H]-BN83250 (at 50 Ci/mmol) and various concentrations of (S)-3(2′2′-dimethylpropionoylamino)-tetrahydropyridin-2-one (10 pM to 10 μM). Excess (100 μM) unlabelled BN83250 was used to determine the level of non-specific binding. After 2 hours at 4° C. (conditions previously shown to achieve equilibrium binding, and which prevent uptake of the radioligand that would result in an over-estimate of binding) excess label was washed away by centrifugation (3 washes with 5 ml of Gey's Balanced Salt Solution) and the bound radioactivity was determined by scintillation counting of the solubilised cell pellet.

[2] = system: THP-1 cells; assay: MCP-1 induced THP-1 cell migration, Transwell assay; assay type: cell-based, human; details: for Max effect (maximum inhibition): Table 2, highest dose tested (1-10 μM); for Maximal inhibition of leukocyte migration: maximal / very high doses, Example 6; for Human chemokine-induced THP-1 migration assay Max effect: Table 3
Experimental: Leukocyte migration was measured using the 96-well format micro Transwell® assay system from Neuroprobe (Gaithersburg, Md., USA). In principle, this assay consists of two chambers separated by a porous membrane. The chemoattractant is placed in the lower compartment and the cells are placed in the upper compartment.
The method was performed essentially as previously described (Reckless & Grainger (1999) Biochem. J. 340:803-11).
First, the cell suspension to be placed in the upper compartment was prepared. The THP-1 cells were pelleted by centrifugation (770×g; 4 mins) and washed with Geys Balanced Salt Solution with 1 mg/ml BSA (GBSS+BSA). This wash was then repeated, and the cells re-pelleted before being resuspended in a small volume of GBSS+BSA for counting, for example using a standard haemocytometer.
The volume of GBSS+BSA was then adjusted depending on the number of cells present so that the cells were at final density of 4.45×10^6 cells per ml of GBSS+BSA. This ensured that there were 100,000 THP-1 cells in each 25 μl of the solution to be placed in the upper chamber of the plate.
The suspension of THP-1 cells at 4.45×10^6 cells/ml was divided into three pots. […] To the second pot, the BSCI was added at the same concentration as in the first pot, but additionally the sstr2 antagonist was also added (for example BIM 23454 [Tulipano et al. (2002) 143:1218-24] or BIM 23627 were added at 66 nM final concentration from a stock solution in GBSS). To the third pot, GBSS+BSA plus vehicle as appropriate was added so that the volumes in three pots are equal, acting as a control.
Next, the chemoattractant solution to be placed in the lower compartment was prepared. MCP-1 was diluted in GBSS+BSA to give a final concentration of 25 ng/ml (after all additions). Note that, as recommended by Frow et al (Med. Res. Rev. 24:276-98) this is the concentration of MCP-1 which induces maximal migration in this system. This solution was divided into three pots, as for the cell suspension. To one pot, the BSCI was added to the same final concentration as was added to the cell suspension, in the second pot the BSCI and the sstr2 antagonist were both added at the same concentration as previously added to the cell suspension, while to the remaining pot GBSS+BSA plus vehicle as appropriate was added so that the volumes in the three pots were equal.
Once the chemoattractant solutions for the lower wells and cell solutions for the upper chambers were prepared, the migration chamber was assembled. 29 μl of the appropriate chemoattractant solution was placed into the lower well of the chamber. Assays were performed with at least triplicate determinations of each condition. Once all the lower chambers were filled, the porous membrane was applied to the chamber in accordance with the manufacturer's instructions. Finally, 25 μl of the appropriate cell solution was applied to each upper chamber. A plastic lid was placed over the entire apparatus to prevent evaporation.
The assembled chamber was incubated at 37° C., 5% CO2, for 2 hours.
At the end of the incubation, the liquid cell suspension was gently removed from the upper chamber, 20 μl of ice-cold 20 mM EDTA in PBS was added to the upper chamber, and the apparatus was incubated at 4° C. for 15 mins. This procedure caused any cells adhering to the underside of the membrane to fall into the lower chamber.
After this incubation the filter was carefully flushed with GBSS+BSA to wash off the EDTA, and then the filter was removed.
The number of cells migrated into the lower chamber under each condition can then be determined by a number of methods, including direct counting, labelling with fluorescent or radioactive markers or through the use of a vital dye. Typically, we utilised the vital dye MTT.

[3] = system: 5HT2a; details: rodents; cited from earlier work
[4] = system: fetal rat pituicytes; assay: Rat pituicyte GH suppression assay; assay type: cell-based; details: for EC50 / Rat pituicyte GH suppression assay Max effect: Table 3; for EC50: read-out: Rat pituicyte GH suppression assay ED50; for Rat pituicyte GH suppression assay Max effect: suppression compared to vehicle
From the text: (§1) Two different assays for “classical” sstr2 functions were adopted: (1) cultured foetal rat pituitary cells secreted growth hormone which is inhibited by sstr2 agonists in a dose-dependent fashion and (2) selected glucose-sensitive sub-clones of the human Panc-1 cell line secrete insulin which is inhibited by sstr2 agonists in a dose-dependent fashion.
Methods: Cultures of fetal rat pituicytes were established exactly as previously described (Murray et al. (2004) J. Clin. Endocrinol. Metab. 89:3027-32) by enzymatic dispersion. After 48 hrs in low glucose DMEM plus 10% FCS, cells in 48 well plates (5×10^4 cells per well) were washed for 4 hrs in serum-free DMEM and then incubated with test agents at various concentrations for a further 24 hrs in serum-free DMEM. At the end of this period, the conditioned medium was harvested, any cell debris removed by centrifugation and assayed for GH using a commercially available ELISA (Linco; cat# EZRMGH-45K) in accordance with the manufacturer's instructions.
(§2) Results were reported as the mean±SD, expressed as the fold change from cells in the presence of vehicle only.

[5] = system: Panc-2H4 cells; assay: Human Panc-2H4 insulin suppression assay; assay type: cell-based; details: for Human Panc-2H4 insulin suppression assay Max effect: suppression compared to vehicle
From the text: as §1
Glucose-sensitive sub-clones of the human Panc-1, a cell line derived from a pleiomorphic epithelioid carcinoma of the exocrine pancreas, were obtained essentially as described by Hamil et al. (2008) Biomed. Sci. Instrum. 44:441-6. Briefly, Panc-1 cells were subcultured in 24 well plates, and the medium was supplemented with an additional 5% glucose. […] The resulting sub-lines were then tested for glucose sensitivity by preparing wells of a 96-well plate (5×10^4 cells per well) which were then exposed to cultured medium containing a range of glucose concentrations (low glucose DMEM, DMEM, DMEM+1% glucose, DMEM+2.5% glucose and DMEM+5% glucose). After 24 hrs incubation, the conditioned medium was collected and assayed for insulin secretion by ELISA (Linco; cat# EZHI-14K) in accordance with the manufacturer's instructions.
Further 96 well plates were prepared using Panc-2H4 (5×10^4 cells per well) in DMEM. After 24 hrs, the medium was switched to DMEM+5% glucose containing various test agents at various concentrations (triplicate wells per condition). After a further 24 hrs, the conditioned medium was harvested and the concentration of insulin was determined by ELISA as described above.
as §2

[6] = system: rat peripheral blood leukocytes; assay: Rat chemokine-induced PBMC migration assay; assay type: cell-based; details: Table 3
[7] = system: Jurkat T cells; assay: SDF-1α induced migration of parental Jurkat T cells; assay type: cell-based, human
Experimental: Results: The level of the SDF-1α, receptor CXCR4 was similar on Jurkat-D3B and the parental Jurkat T cell line. Furthermore, the Jurkat-D3B cells responded to SDF-1α in a Transwell® chemotaxis assay (see Example 1 for the methodology employed) over a similar concentration range to the parental cell line.
Jurkat T cells and Jurkat-D3B cells were induced to migrate in response to 100 ng/ml SDF-1α (R&D systems; the concentration of SDF-1α which induced maximal cell migration in both lines). The BSCI BN83250 was then added at various concentrations between 0 nM and 1000 nM (each in triplicate) to both the upper and lower compartments (at the same concentration in each compartment, so as not to create a gradient of BSCI concentration). DMSO (1% final concentration) was used as the vehicle, and was present in all wells at equal concentration.

[8] = system: platelets; assay: ADP-mediated platelet activation/aggregation; assay type: cell-based
[9] = Table 3, read-out: Human Panc-2H4 insulin suppression assay ED50

T1 sequence (P30874 whole entry): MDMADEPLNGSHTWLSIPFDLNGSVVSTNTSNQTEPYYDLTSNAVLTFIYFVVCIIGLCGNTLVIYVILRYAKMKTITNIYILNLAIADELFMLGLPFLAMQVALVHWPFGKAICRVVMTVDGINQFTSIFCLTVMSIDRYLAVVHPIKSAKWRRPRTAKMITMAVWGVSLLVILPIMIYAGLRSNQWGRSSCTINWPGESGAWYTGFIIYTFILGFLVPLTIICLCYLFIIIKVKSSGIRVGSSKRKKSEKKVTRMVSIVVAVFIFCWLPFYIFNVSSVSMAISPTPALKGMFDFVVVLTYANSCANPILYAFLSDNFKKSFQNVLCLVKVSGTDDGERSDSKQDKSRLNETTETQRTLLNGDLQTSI

## [3H]C(CCCCCCC)C([3H])CC(C)(C)C(=O)N[C@H]1CCCCNC1=O (stereo partly drawn) [[^3H]-BN83250, 4′,5′-^3[H] (S)-3-(2′,2′-dimethyldodecanoyl)amino-caprolactam]
[1]; THP-1 cells
  Binding sites per cell: 100,000 to 200,000 sites per cell
[1]; THP-1 cells, 2 hours at 4° C., read-out: Affinity (Scatchard analysis)
  Kd: ~80 nM

## Cortistatin: more recently described somatostatin analog (DRMPCRNFFWKTFSSCK; ends and bridges not checked; cysteine pairing not given here; UniProt O00230 89-105, looked up)
[2]
  Max effect (maximum inhibition): 40-60%
  Maximal inhibition of leukocyte migration: ~50%

## CCN(CC)C(=O)[C@@H]1C=C2c3cccc4[nH]cc(c34)C[C@H]2N(C)C1 [LSD]
[3]
  Head twitching by classical 5HT2a agonists: induce this classical effect

## C[C@@H](c1c[nH]c2ccccc12)[C@@H](NC(=O)N1CCC(n2c(=O)[nH]c3ccccc32)CC1)C(=O)NC[C@@H]1CCC[C@H](CN)C1 [L-779,976]
[4]
  EC50: 2.9 nM
  Rat pituicyte GH suppression assay Max effect: 55%
[2]
  Human chemokine-induced THP-1 migration assay Max effect: 65%
[2]; Table 4
  Chemokine-induced THP-1 cell migration assay (“BSCI” target) Max Effect: 65%
[2]; Table 5
  Chemokine-induced THP-1 cell migration assay (“BSCI” target) Max Effect: 65%
[5]; [9]
  EC50: 17 nM
[5]; Table 3
  Human Panc-2H4 insulin suppression assay Max effect: 40%
[5]; Table 4
  Panc-2H4 insulin suppression assay (“classical” target) Max Effect: 40%
[5]; Table 4, 0.01 nM to 1,000 nM, DMSO 1%, read-out: Panc-2H4 insulin suppression assay (“classical” target) ED50
  EC50: 17 nM
[5]; Table 5
  Panc-2H4 insulin suppression assay (“classical” target) Max Effect: 40%
[5]; Table 5, read-out: Panc-2H4 insulin suppression assay (“classical” target) ED50
  EC50: 17 nM

## CN(C)CCc1c[nH]c2cccc(O)c12 [psilocin]
[3]
  Head twitching by classical 5HT2a agonists: induce this classical effect

## CC1(C(=O)N[C@H]2CCCCNC2=O)CCCCC1 [(S)-3-(1′-methylcyclohexyl-1′-carbonylamino)-caprolactam]
[1]
  Competition with BN83250 binding to sstr2, in words: compete with BN83250 binding to sstr2 to a similar extent

## O=C1NCCCC[C@@H]1NC(=O)C12CC3CC(CC(C3)C1)C2 [BN83470, (S)-3-(admantane-1′-carbonylamino)-caprolactam]
[1]
  Competition with BN83250 binding to sstr2, in words: compete with BN83250 binding to sstr2 to a similar extent
[6]
  Rat chemokine-induced PBMC migration assay Max effect: 100%
[4]
  Inhibition of GH release, in words: inhibited GH release only at much higher concentrations
  EC50: 270 nM
  Rat pituicyte GH suppression assay Max effect: 56%
[2]
  Human chemokine-induced THP-1 migration assay Max effect: 100%
[5]; [9]
  EC50: > 1000 nM
[5]; Table 3
  Human Panc-2H4 insulin suppression assay Max effect: <10%

## COC(=O)[C@@H]1[C@H]2C[C@H]3c4[nH]c5ccccc5c4CCN3C[C@@H]2CC[C@@H]1O [yohimbine]
[7]
  Inhibition of SDF-1α induced migration of Jurkat T cells, in words: neither agent inhibits
[8]
  Effect on ADP-mediated platelet activation/aggregation: significant potentiate ADP-mediated platelet aggregation

## CC(C)C[C@H]1C(=O)N2CCC[C@H]2[C@]2(O)O[C@](NC(=O)[C@@H]3C[C@@H]4c5cccc6[nH]cc(c56)C[C@H]4N(C)C3)(C(C)C)C(=O)N12 [dihydroergocryptine]
[8]
  Effect on ADP-mediated platelet activation/aggregation: significant potentiate ADP-mediated platelet aggregation

## Sst-28: alternatively processed sst28 natural ligand
[2]
  Max effect (maximum inhibition): 40-60%
  Maximal inhibition of leukocyte migration: 40-60%

## C[C@@H](N)Cc1c2ccoc2c(Br)c2ccoc12 [Bromo-DragonFLY]
[3]
  Head twitching by classical 5HT2a agonists: induce this classical effect

## COc1cc(CCN)cc(OC)c1OC [mescaline]
[3]
  Head twitching by classical 5HT2a agonists: induce this classical effect

## Clc1cccc(Cl)c1N=C1NCCN1 [clonidine]
[8]
  Effect on ADP-mediated platelet activation/aggregation: significant potentiate ADP-mediated platelet aggregation
